Here are results for 18 compounds from patent US11285156B2, “Substituted piperazines as KRAS G12C inhibitors” (Amgen Inc., priority 2018, dated 2022).

Where two headings read alike, the source gives them in different places.

Test [1] deals with Phosphorylation of ERK1/2 in A549 cells. The test can be described thus: Phospho-ERK1/2 MSD assay in A549 cells. The class given is cell-based. To be noted: read-out: p-ERK IC50 (2 h, A549; μM), 2 h compound treatment, A549 cells, EGF stimulated. In a few lines:
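MSD electrochemiluminescent read-out of phospho-ERK1/2 in RIPA lysates. Cells in RPMI 1640 with 10% FBS received titrated compound for 2 or 4 h, then 10 ng/mL EGF for 10 min before ice-cold PBS wash and lysis.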

Test [2] has as its target GDP-bound KRAS protein (aa 1-169), containing both G12C and C118A amino acid substitutions (Homo sapiens (Human), UniProt P01116, C118A/G12C). The test can be described thus: Coupled nucleotide exchange assay (SOS-mediated nucleotide exchange, AlphaScreen). The class given is biochemical. The following applies: 5 min compound pre-incubation; for IC50: read-out: Coupled exchange IC50 (5 min; μM).

The subject of test [3] is Phosphorylation of ERK1/2 in MIA PaCa-2 cells. The test can be described thus: Phospho-ERK1/2 MSD assay in MIA PaCa-2 cells. Type of test: cell-based. To be noted: read-out: p-ERK IC50 (2 h, MiaPaCa-2; μM), 2 h compound treatment, MIA PaCa-2 cells, EGF stimulated. In outline:
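Phospho-ERK1/2 measured by MSD electrochemiluminescence kit in RIPA lysates of MIA PaCa-2 cells. Cells were treated with compound titrations for 2 or 4 h at 37 °C, 5% CO2, followed by a 10 min pulse of 10 ng/mL EGF.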

GDP-bound KRAS protein (aa 1-169), containing both G12C and C118A amino acid substitutions, sequence (P01116 other isoform, or with tags, fused parts or gaps G12C/C118A): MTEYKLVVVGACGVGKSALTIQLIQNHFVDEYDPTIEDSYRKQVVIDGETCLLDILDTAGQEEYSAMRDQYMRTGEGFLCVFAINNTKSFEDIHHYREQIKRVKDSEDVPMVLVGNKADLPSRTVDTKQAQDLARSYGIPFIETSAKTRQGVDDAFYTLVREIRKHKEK

Broadly, the IC50 is the concentration at which inhibition is half-maximal. `C=CC(=O)N1C[C@H](C)N(c2nc(=O)n(-c3c(C)ccnc3C(C)C)c3nc(-c4ccccc4C4CC4)c(Cl)cc23)C[C@H]1C` (atropisomer, axis not shown; (M)) [Example 92-4, (M)-6-Chloro-7-(2-cyclopropylphenyl)-4-[(2S,5R)-2,5-dimethyl-4-prop-2-enoyl-piperazin-1-yl]-1-(2-isopropyl-4-methyl-3-pyridyl)pyrido [2,3-d]pyrimidin-2-one]: the IC50 was more than 7.5 µM in test [1] (Homo sapiens, A549, 2 h); 0.044 µM in test [2]; 0.042 µM in test [3] (Homo sapiens, MIA PaCa-2, 2 h).
Consider `C=CC(=O)N1C[C@H](C)N(c2nc(=O)n(-c3c(N(C)C)ccnc3C(C)C)c3nc(-c4ccccc4C(C)C)c(Cl)cc23)C[C@H]1C` [Example 103-1, 4-((2S,5R)-4-Acryloyl-2,5-dimethylpiperazin-1-yl)-6-chloro-1-(4-(dimethylamino)-2-isopropylpyridin-3-yl)-7-(2-isopropylphenyl)pyrido[2,3-d]pyrimidin-2(1H)-one], for which the IC50 in test [1] (Homo sapiens, A549, 2 h) was more than 7.5 µM; in test [2] it was 0.105 µM; in test [3], 0.107 µM.
Consider `C=CC(=O)N1C[C@H](C)N(c2nc(=O)n(-c3c(C)cc([S+](C)[O-])cc3C(C)C)c3nc(-c4ccccc4C)c(Cl)cc23)C[C@H]1C` (single isomer, unassigned) [Example 213-2], for which the IC50 in test [1] (Homo sapiens, A549, 2 h) is more than 7.5 µM; in test [3] (Homo sapiens, MIA PaCa-2, 2 h) it was 0.069 µM. In test [2], the “Coupled exchange IC50 (5 min; μM)” value turned out to be 0.072 µM.
In the case of `C=CC(=O)N1C[C@H](C)N(c2nc(=O)n(-c3c(C)cc(CN(C)C)cc3C(C)C)c3nc(-c4c(O)cccc4F)c(F)cc23)C[C@H]1C` [Example 80-21, 1-[4-[(Dimethylamino)methyl]-2-isopropyl-6-methyl-phenyl]-4-[(2S,5R)-2,5-dimethyl-4-prop-2-enoyl-piperazin-1-yl]-6-fluoro-7-(2-fluoro-6-hydroxy-phenyl)pyrido[2,3-d]pyrimidin-2-one], the IC50 in test [1] (Homo sapiens, A549, 2 h) was more than 7.5 µM; in test [2] it was 0.25 µM; in test [3] (Homo sapiens, MIA PaCa-2, 2 h), 0.138 µM.
`C=CC(=O)N1C[C@H](C)N(c2nc(=O)n3c4nc(c(Cl)cc24)-c2ccccc2C/C=C/Cc2cccc(C(C)C)c2-3)C[C@H]1C` (atropisomer, axis not shown; (M)) [Example 146-2, (M)-(9Z)-19-Chloro-22-((2S,5R)-2,5-dimethyl-4-(2-propenoyl)-1-piperazinyl)-3-(2-propanyl)-1,23,26-triazapentacyclo[16.6.2.0~2,7~.0~12,17~.0~21,25~]hexacosa-2,4,6,9,12,14,16,18,20,22,25-undecaen-24-one, (M)-19-chloro-22-((2S,5R)-2,5-dimethyl-4-(2-propenoyl)-1-piperazinyl)-3-(2-propanyl)-1,23,26-triazapentacyclo[16.6.2.0~2,7~.0~12,17~.0~21,25~]hexacosa-2,4,6,9,12,14,16,18,20,22,25-undecaen-24-one]: the IC50 is 6.51 µM in test [1] (Homo sapiens, A549, 2 h); 0.028 µM in test [2]; 0.038 µM in test [3] (Homo sapiens, MIA PaCa-2, 2 h).
For `C=CC(=O)N1CCN(c2nc(=O)n(-c3c(C)ccnc3C(C)C)c3nc(Cl)c(Cl)cc23)CC1CC#N` (atropisomer, axis not shown; (M)) [Example 144-2-2, (M)-2-[4-[6,7-Dichloro-1-(2-isopropyl-4-methyl-3-pyridyl)-2-oxo-pyrido[2,3-d]pyrimidin-4-yl]-1-prop-2-enoyl-piperazin-2-yl]acetonitrile], in that order: 4 µM, 9.13 µM and 3.1 µM.
Turning to `C=CC(=O)N1C[C@H](C)N(c2nc(=O)n(-c3c(C)nc(C4CC4)nc3C(C)C)c3nc(-c4ccccc4F)c(Cl)cc23)C[C@H]1C` (single isomer, unassigned) [Example 198], the IC50 in test [1] (Homo sapiens, A549, 2 h) came out at 5.96 µM; in test [3] (Homo sapiens, MIA PaCa-2, 2 h), 0.136 µM. The “Coupled exchange IC50 (5 min; μM)” value in test [2] came to 0.075 µM.
Regarding `C=CC(=O)N1C[C@H](C)N(c2nc(=O)n(-c3c(C(C)C)nc(OC)nc3C(C)C)c3nc(-c4ccccc4F)c(Cl)cc23)C[C@H]1C` [Example 154, 6-Chloro-1-(4,6-diisopropyl-2-methoxy-pyrimidin-5-yl)-4-[(2S,5R)-2,5-dimethyl-4-prop-2-enoyl-piperazin-1-yl]-7-(2-fluorophenyl)pyrido[2,3-d]pyrimidin-2-one], the concentration for half-maximal inhibition (IC50) is 6.96 µM in test [1] (Homo sapiens, A549, 2 h); 0.062 µM in test [2]; 0.049 µM in test [3] (Homo sapiens, MIA PaCa-2, 2 h).
Regarding `C=CC(=O)N1C[C@H](C)N(c2nc(=O)n(-c3c(C(C)C)ncnc3C3CC3)c3nc(-c4ccccc4F)c(Cl)cc23)C[C@H]1C` (single isomer, unassigned) [Example 108-1-2], the results for the IC50 in test [1], in test [2] and in test [3] were more than 7.5 µM, 0.008 µM and 0.054 µM, respectively.
As for `C=CC(=O)N1C[C@H](C)N(c2nc(=O)n(-c3c(C)ccnc3C(C)C)c3nc(-c4cccc(Cl)c4)c(Cl)cc23)C[C@H]1C` (atropisomer, axis not shown; (M)) [Example 92-54, (M)-6-Chloro-7-(3-chlorophenyl)-4-[(2S,5R)-2,5-dimethyl-4-prop-2-enoyl-piperazin-1-yl]-1-(2-isopropyl-4-methyl-3-pyridyl)pyrido [2,3-d]pyrimidin-2-one], the IC50 in test [1] (Homo sapiens, A549, 2 h) is more than 7.5 µM; in test [2], 0.169 µM; in test [3] (Homo sapiens, MIA PaCa-2, 2 h), 0.217 µM.
For `C=CC(=O)N1C[C@H](C)N(c2nc(=O)n(-c3c(C(C)C)nc(C#N)nc3C(C)C)c3nc(-c4ccccc4F)c(Cl)cc23)C[C@H]1C` [Example 155, 5-[6-Chloro-4-[(2S,5R)-2,5-dimethyl-4-prop-2-enoyl-piperazin-1-yl]-7-(2-fluorophenyl)-2-oxo-pyrido[2,3-d]pyrimidin-1-yl]-4,6-diisopropyl-pyrimidine-2-carbonitrile], in that order: 2.59 µM, 0.104 µM and 0.063 µM.
`C=CC(=O)N1C[C@H](C)N(c2nc(=O)n(-c3c(C(C)C)cnnc3C(C)C)c3nc(-c4ccccc4F)c(Cl)cc23)C[C@H]1C` (single isomer, unassigned) [Example 205-1]: the IC50 in test [1] (Homo sapiens, A549, 2 h) is more than 7.5 µM; in test [3] (Homo sapiens, MIA PaCa-2, 2 h) it was 0.07 µM. Further, the “Coupled exchange IC50 (5 min; μM)” value in test [2] came out at 0.098 µM.
Turning to `C=CC(=O)N1C[C@H](C)N(c2nc(=O)n(-c3c(C)ccnc3C(C)C)c3nc(-c4ccccc4F)c(Cl)nc23)C[C@H]1C` (single isomer, unassigned) [Example 106-6-2], the half-maximal inhibitory concentration (IC50) in test [1] (Homo sapiens, A549, 2 h) was more than 7.5 µM; in test [2], 0.059 µM; in test [3] (Homo sapiens, MIA PaCa-2, 2 h), 0.301 µM.
As to `C=CC(=O)N1C[C@H](C)N(c2nc(=O)n(-c3c(C)ccnc3C(C)C)c3nc(-c4ccccc4NC(C)=O)c(Cl)cc23)C[C@H]1C` (atropisomer, axis not shown; (M)) [Example 92-18, (M)-N-[2-[6-Chloro-4-[(2S,5R)-2,5-dimethyl-4-prop-2-enoyl-piperazin-1-yl]-1-(2-isopropyl-4-methyl-3-pyridyl)-2-oxo-pyrido[2,3-d]pyrimidin-7-yl]phenyl] acetamide], the IC50 in test [1] (Homo sapiens, A549, 2 h) was more than 7.5 µM; in test [2], 0.085 µM; in test [3] (Homo sapiens, MIA PaCa-2, 2 h), 0.17 µM.
For the compound `C=CC(=O)N1C[C@H](C)N(c2nc(=O)n(-c3ccccc3C(C)C)c3nc(-c4ccccc4F)c(Cl)cc23)C[C@H]1C` [Example 186, 4-((2S,5R)-4-Acryloyl-2,5-dimethylpiperazin-1-yl)-6-chloro-7-(2-fluorophenyl)-1-(2-isopropylphenyl)pyrido[2,3-d]pyrimidin-2(1H)-one], the IC50 was more than 7.5 µM in test [1] (Homo sapiens, A549, 2 h); 0.093 µM in test [2]; 0.199 µM in test [3] (Homo sapiens, MIA PaCa-2, 2 h).
On to `C=CC(=O)N1C[C@H](C)N(c2nc(=O)n(-c3c(C)ccnc3C(C)C)c3nc(-c4sccc4C)c(Cl)cc23)C[C@H]1C` (atropisomer, axis not shown; (M)) [Example 93-1, (M)-6-Chloro-4-[(2S,5R)-2,5-dimethyl-4-prop-2-enoyl-piperazin-1-yl]-1-(2-isopropyl-4-methyl-3-pyridyl)-7-(3-methyl-2-thienyl)pyrido[2,3-d]pyrimidin-2-one], for which the values for the IC50 in test [1], in test [2] and in test [3] were more than 7.5 µM, 0.055 µM and 0.097 µM, respectively.
On to `C=CC(=O)N1C[C@H](C)N(c2nc(=O)n(-c3c(C(C)C)ncnc3C(C)C)c3nc(-c4ccc(C#N)cc4F)c(Cl)cc23)C[C@H]1C` [Example 100-2, 4-[6-Chloro-1-(4,6-diisopropylpyrimidin-5-yl)-4-[(2S,5R)-2,5-dimethyl-4-prop-2-enoyl-piperazin-1-yl]-2-oxo-pyrido[2,3-d]pyrimidin-7-yl]-3-fluoro-benzonitrile], for which the IC50 in test [1] (Homo sapiens, A549, 2 h) was more than 7.5 µM; in test [2] it was 0.324 µM; in test [3] (Homo sapiens, MIA PaCa-2, 2 h) it was 0.298 µM.
With `C=CC(=O)N1CCN(c2nc(=O)n(-c3c(C)ccnc3C(C)C)c3nc(-c4c(O)cccc4F)c(Cl)cc23)CC1CC#N` (atropisomer, axis not shown; (M)) [Example 144-3, (M)-2-[4-[6-Chloro-7-(2-fluoro-6-hydroxy-phenyl)-1-(2-isopropyl-4-methyl-3-pyridyl)-2-oxo-pyrido[2,3-d]pyrimidin-4-yl]-1-prop-2-enoyl-piperazin-2-yl]acetonitrile], the IC50 was more than 7.5 µM in test [1] (Homo sapiens, A549, 2 h); 0.166 µM in test [2]; 2.41 µM in test [3] (Homo sapiens, MIA PaCa-2, 2 h).
